Experimental data published in patent publication US20150366819A1, “COMPOSITIONS AND METHODS FOR TREATING HOOF DISEASES” (AGROCHEM, INC., priority 2008, published 2015).

Tests used:
[1] = tested on: Hydrolyzed Bovine Dry Collagen protein medium; experiment: Cross-linking test: skin (crust) formation on protein medium after spraying
Procedure: Tests were performed in order to obtain a skin (crust) on the protein medium by using a cross-linking agent. Time, temperature and skim formation were monitored. Tests were performed at 40° F.—both medium and solutions were cooled to test temperature. Test medium was prepared by mixing a solution containing 85% D.I. water and 15% Hydrolyzed Bovine Dry Collagen (purchased from Milligan & Higgens). Approx 4 oz of the preparation was put into Petri dishes, placed in a refrigerator for thirty minutes before reacclimatizing at room temperature, ready for testing. Subsequently, the various test solutions were poured into 4 oz bottles with spray nozzles and 10 ml of solution was sprayed onto the medium in the petri dishes from a distance of 6 inches, timed and viewed at 15 minute intervals and the contents of the petri dish was then scored for skin formation. The time and extent of skin formation was noted and transposed to graphs (see FIGS. 1-4).
A second series of tests were run using Egg Albumin Powder (purchased from J.T. Baker) as the protein medium, prepared by mixing 85% D.I. water and 15% Egg Albumin Powder. Both test produced identical results.
Lab testing was performed to assess cross-linking ability of various compositions. […]

[2] = tested on: digital dermatitis lesions; experiment: Actual field application on digital dermatitis lesions (scab formation); assay type: in vivo, cow; settings: glutaraldehyde at less than 5%, applied on digital dermatitis lesions

Structure (SMILES) | cross-linking of test samples (in words) ([1]; glutaraldehyde reduced to less than 5%, FIG. 2) | facilitating adequate scab formation in an acceptable time span [2] | cross-linking effects, maximum extent of skin formation ([1]; glyoxal alone, scored from 0 to 10, FIG. 3)
O=CCCCC=O [glutaraldehyde] | significantly less cross-linking | ineffective | –
O=CC=O [glyoxal] | – | – | 2.5
